# Key:
# Type in all cases: cell-based, rat
# Ube3A [1] = test: Ube3A protein degradation in B35 cells (cycloheximide chase); conditions: pre-treatment with STI
# Description: FIG. 5A is a graph showing the quantification of Western blots of the levels of Ube3A and GAPDH (as house-keeping protein) of B35 cells treated with cycloheximide (CHX) or CHX and oAβ for 4, 8 and 16 hours. […] Graphs represent mean values and standard deviation. Significance determined by one-way ANOVA followed by Tukey Post Hoc multiple comparisons.
# Ube3A [2] = test: Immunoprecipitation of HA-Ube3A and phospho-tyrosine immunoblot in B35 cells; conditions: B35 cells pre-treated with STI-571 for 1 hour prior to oAβ
# Description: (§1) Hippocampal neuron cultures from both male and female rat embryos (E17-18) were prepared following a slightly modified version of the method of Brewer et al. 1996. Hippocampal neurons were kept in culture at 37° C. with 5% CO2 in Neurobasal medium (ThermoFisher) with B27 (ThermoFisher) supplement and Glutamax (ThermoFisher) and plated at a density of 2.5×10^5 cell/ml on dishes coated with poly-D-lysine (ThermoFisher). For the experiments, neurons were used after 14-21 days in vitro (DIV). Rat neuroblastoma B35 cells were cultured and maintained in DMEM (ThermoFisher) supplemented with 10% fetal bovine serum (FBS; Invitrogen) and Glutamax (ThermoFisher).
# Cells were collected and homogenized with IP lysis buffer (ThermoFisher) supplemented with Halt protease and phosphatase inhibitor (ThermoFisher). Cell extracts were incubated overnight at 4° C. with 1.0 μg HA antibody (Cell Signaling) or mouse IgG (Cell Signaling) as a negative control Immunocomplexes were incubated with magnetic beads covalently coated with protein G (Invitrogen) on a rotator for 2 hours, at 4° C. The beads were then pelleted with a magnet and washed 3 times with 1× cell lysis buffer (Cell Signaling) supplemented with complete mini protease inhibitor mixture (Roche). The immunocomplexes were resuspended in cell lysis buffer, LDS-sample buffer (Invitrogen), […] dithiothreitol (DTT), and analyzed by Western blotting. […]
# [3] = test system: primary hippocampal neurons; test: Dendritic spine density in cultured hippocampal neurons (DiOlistic labeling); conditions: siRNA pre-treatment, oAβ 24 hours
# Description: The protocol for diolistic labeling of neurons was adapted from Gan et al. 2000 and Gan et al. 2009. Briefly, 100 mg of tungsten particles (1.1 μm diameter; Bio-Rad) were thoroughly precipitated with 5.0 mg of lipophilic dye (DiI; ThermoFisher) and dissolved in 100 μl of methylene chloride. Dye-coated particles were shot 2-3 times into the cells using the Helios gene gun system (Bio-Rad) and left in 0.1 M PBS overnight to allow dye diffusion along neuronal processes. Cells were post-fixed with 4% paraformaldehyde (Pierce) for 1 hour to preserve staining, then mounted onto glass slides using Gel Mount (Biomeda) and stored at 4° C. in the dark.
# Labeled neurons were imaged using the Laser Scanning Microscope (LSM) 510 Meta confocal microscope (Zeiss), equipped with 40×1.3 NA and 100×1.4 NA oil-immersion objectives. The NIH Image software program ImageJ was used the quantify diolistic-labeled cultured neurons. An average of 12 compressed images (20 μm thick) consisting of pyramidal neurons were quantified for each treatment. Spines were counted with NeuronStudio software in a blinded manner and spine density was represented in number of spine per μm dendritic length. Statistical analysis was performed using the statistics package GraphPad Prism.
# To further test whether increasing Ube3A could rescue the effects of oAβ, cultured primary hippocampal neurons (14 DIV) were pretreated with 300 nM of TOP or control PBS. The neurons were then treated with oAβ for 24 hours, and whole cell lysates prepared for Western blot analysis, or fixed for microscopy.
# Ephexin-5 = test: Western blot of Ephexin-5 in cultured primary hippocampal neurons; conditions: hippocampal neurons, Penetratin-1-linked siRNA for 24 hours
# Description: as §1
# Whole frozen mouse hippocampi, human brain specimens, and cultured cells were homogenized in RIPA buffer (ThermoFisher) supplemented with protease and phosphatase inhibitor cocktail (ThermoFisher), using a Teflon dounce homogenizer and centrifuged at 14,000 rpm for 10 minutes at 4° C. Supernatants were collected, normalized by BCA assay (ThermoFisher), and prepared for loading using sample buffer (SB) 4× (ThermoFisher) and dithiothreitol (DTT) 10× (ThermoFisher).
# Cultured primary hippocampal neurons (14 DIV) were treated with 300 nM of a topoisomerase type I inhibitor, topotecan (TOP) or a vehicle control as described in Huang et al. 2012. Some cells were treated for 24 hours and some for 72 hours. All cells were harvested and whole cell lysates prepared for Western blot analysis of Ube3A and Ephixin-5.
# RhoA-GTP = test: Rho-GTPase activity pull-down assay in hippocampal neurons; conditions: siRNA 24 hours prior to oAβ for 8 hours
# Description: Rho-GTPase pull-down assays were performed following the manufacturer's protocol (Cytoskeleton, Inc.). Briefly, cells were washed once with ice-cold PBS and lysed with RIPA/M-PER buffer (1:1; ThermoFisher). Lysates were incubated on ice for 5 minutes, and centrifuged (12,000 g) for 5 minutes. 30 μl was used for input and the remaining lysates were incubated with Rhotekin-RBD (RhoA) or PAK-RBD (Rac1) protein beads (25 μl) by rotating for 1 hour at 4° C. Beads were washed with ice-cold PBS (500 μl, 3×) and collected, and bound proteins were eluted with 1× sample buffer (30 μl). Input and eluted samples were then analyzed by gel electrophoresis and Western blotting using either a RhoA or Rac1-specific antibody.
# To test whether increasing Ube3A could rescue the effects of oAβ, cultured primary hippocampal neurons (14 DIV) were pretreated with 300 nM of TOP or control PBS. At day 3 the cells were treated with oligomeric Aβ for 6 hours and whole cell lysates prepared for Western blot analysis of Ube3A protein levels and levels of active GTPase levels including RhoA-GTP, Rac1-GTP and Cdc42-GTP.
Compound,oAβ-induced decrease in Ube3A protein (Ube3A [1]),Ube3A phosphorylation by oAβ (Ube3A [2]),loss of dendritic spine in neurons treated with oAβ [3],levels of Ephexin-5 (Ephexin-5),oAβ-induced upregulation of RhoA activity (RhoA-GTP)
Cc1ccc(NC(=O)c2ccc(CN3CCN(C)CC3)cc2)cc1Nc1nccc(-c2cccnc2)n1 [STI-571],completely blocked,complete abolishment,,,
"Penetratin-1-linked siRNA: Ephexin-5 siRNA (SEQ ID NO: 1 and 2) cross-linked via a Cys-Cys bond to the delivery peptide Penetratin-1 (chain 1 GUCCUUUCUCCGUGUAUGUUU; chain 2 ACAUACACGGAGAAAGGACUU; Penetratin-1 peptide attached via Cys-Cys disulfide, further chemistry not given here)",,,completely rescued,depleted,completely blocked
